Experimental data as given in ChEMBL document CHEMBL4706554 (Eur J Med Chem, 2020).

Assays:
Format in all cases: cell-based
[1] = target: T1, Casein kinase II subunit alpha' (Homo sapiens, UniProt P19784); assay: Displacement of fluorescent tracer from full-length human C-terminal NanoLuc-tagged CK2alpha' expressed in HEK293T permeabilized cells measured after 2 hrs by NanoBRET assay
[2] = target: T1, Casein kinase II subunit alpha'; assay: Displacement of fluorescent tracer from full-length human C-terminal NanoLuc-tagged CK2alpha' expressed in HEK293T cells measured after 2 hrs by NanoBRET assay
[3] = target: T2, Casein kinase II subunit alpha (Homo sapiens, UniProt P68400); assay: Displacement of fluorescent tracer from full-length human C-terminal NanoLuc-tagged CK2alpha expressed in HEK293T cells measured after 2 hrs by NanoBRET assay
T2 sequence (P68400 whole entry): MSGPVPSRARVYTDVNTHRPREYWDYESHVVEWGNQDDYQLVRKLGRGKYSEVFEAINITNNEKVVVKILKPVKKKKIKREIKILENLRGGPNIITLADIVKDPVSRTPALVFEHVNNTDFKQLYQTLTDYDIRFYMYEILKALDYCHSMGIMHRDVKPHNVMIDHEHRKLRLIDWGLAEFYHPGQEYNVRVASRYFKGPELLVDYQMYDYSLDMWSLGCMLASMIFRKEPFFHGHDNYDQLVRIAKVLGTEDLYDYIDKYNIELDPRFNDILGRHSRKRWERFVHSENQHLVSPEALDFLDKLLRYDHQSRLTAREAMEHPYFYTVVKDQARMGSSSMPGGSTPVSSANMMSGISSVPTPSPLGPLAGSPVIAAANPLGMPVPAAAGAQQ

[4] = target: T2, Casein kinase II subunit alpha; assay: Displacement of fluorescent tracer from full-length human C-terminal NanoLuc-tagged CK2alpha expressed in HEK293T permeabilized cells measured after 2 hrs by NanoBRET assay

T1 sequence (P19784 whole entry): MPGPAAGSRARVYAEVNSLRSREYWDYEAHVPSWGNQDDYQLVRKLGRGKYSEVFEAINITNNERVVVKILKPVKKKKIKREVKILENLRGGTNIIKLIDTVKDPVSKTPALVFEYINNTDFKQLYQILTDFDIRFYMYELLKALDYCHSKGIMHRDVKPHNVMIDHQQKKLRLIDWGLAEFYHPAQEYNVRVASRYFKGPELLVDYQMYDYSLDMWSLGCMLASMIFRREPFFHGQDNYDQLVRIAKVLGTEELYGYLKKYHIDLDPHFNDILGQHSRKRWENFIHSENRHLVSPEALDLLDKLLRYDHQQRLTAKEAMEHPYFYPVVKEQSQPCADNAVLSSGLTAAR

IC50 [1] | IC50 [2] | IC50 [3] | IC50 [4] | Compound
0.771 µM | – | – | – | CC(C)(C)OC(=O)N1CCOCCOc2cc(ccc2C(=O)O)-c2cnn3ccc1nc23
> 50 µM | > 50 µM | > 50 µM | 13.2 µM | COC(=O)c1ccc2cc1OCCOCCNc1ccn3ncc-2c3n1
